Assay results from PMC11992225, “Antibacterial compounds against non-growing and intracellular bacteria” (npj Antimicrobials and Resistance, 2025).
In brackets after ≈: the same amount, converted by molar mass. Several values for one entry are separate records, joined by “and”; a condition that tells them apart may be missing. Equal values may be shown once. Read-outs that look alike come from different tables or passages of the source.

Experiments:
[1] = test system: S. aureus DSM2569; assay: MIC, standard microdilution assay, growing S. aureus; format: cell-based, Staphylococcus aureus; conditions: Staphylococcus aureus, DSM2569; S. aureus; CA-MHB pH 7.4; read-out: MIC (μM) CA-MHB
Procedure, shortened: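 MICs come from microdilution in CA-MHB/40 mM HEPES pH 7.4 for the UPEC, Pseudomonas and Staphylococcus strains, and in TSB for Shigella. UPEC also tested in LPM/30 mM MES pH 5.5.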

[2] = test system: non-growing UPEC CFT073; assay: Dilution-regrowth assay (screen, hit validation, dose-response) on stationary-phase UPEC; format: cell-based, Escherichia coli; conditions: for Regrowth: OD600 after dilution into drug-free medium (mean): OD600 at 6h or 8h; for EC50: Escherichia coli
Procedure, shortened: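 Regrowth (OD600 after 6 h, 37 °C) of diluted non-growing CFT073, following 24 h compound treatment of 24 h stationary cultures, defines activity relative to untreated control. Screen at 20 µM, validation at 20, 10, 5 µM (duplicates), dose–response in three biological replicates fitted by five-parameter logistic.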

[3] = test system: non-growing UPEC CFT073; assay: Dose-dependent killing analysis (CFU spot-plating) of stationary-phase UPEC; format: cell-based, Escherichia coli
Procedure, shortened: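 Non-growing (stationary-phase) UPEC CFT073 treated with compounds in 96-well format at 200 μl, then 10-fold serially diluted in PBS and 10 μl spots plated on LB agar. Plates incubated overnight at 37 °C; colonies counted at lowest resolvable dilution to give CFU. Three biological replicates.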

[4] = test system: non-growing S. aureus DSM2569; assay: Dose-dependent killing analysis (CFU spot-plating) of stationary-phase S. aureus; format: cell-based, Staphylococcus aureus; conditions: S. aureus; for Killing: average Δlog10(CFU/ml): vs 9,097 before treatment
Procedure, shortened: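 Stationary-phase S. aureus DSM2569 was grown and treated for 24 h in 1:4 CA-MHB at pH 7.4. Treated samples were serially diluted 10-fold in PBS and spot-plated on LB agar, which was incubated overnight at 37 °C. Survivors were counted as CFU over three biological replicates.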

[5] = E. coli in 1:4 CA-MHB (pH 7.4), concentration 0.25
[6] = E. coli in 1:4 CA-MHB (pH 7.4), concentration 0.5
[7] = E. coli in 1:4 CA-MHB (pH 7.4), concentration 1
[8] = E. coli in 1:4 CA-MHB (pH 7.4), concentration 2.5
[9] = E. coli in 1:4 CA-MHB (pH 7.4), concentration 5
[10] = E. coli in 1:4 CA-MHB (pH 7.4), concentration 10
[11] = E. coli in LPM (pH 5.5), concentration 0.25
[12] = E. coli in LPM (pH 5.5), concentration 0.5
[13] = E. coli in LPM (pH 5.5), concentration 1
[14] = E. coli in LPM (pH 5.5), concentration 2.5
[15] = E. coli in LPM (pH 5.5), concentration 5
[16] = E. coli in LPM (pH 5.5), concentration 10

## CO[C@H]1/C=C/O[C@@]2(C)Oc3c(C)c(O)c4c(O)c(c(/C=N/N5CCN(C6CCCC6)CC5)c(O)c4c3C2=O)NC(=O)/C(C)=C\C=C\[C@H](C)[C@H](O)[C@@H](C)[C@@H](O)[C@@H](C)[C@H](OC(C)=O)[C@@H]1C [Rifapentine]
[1]
  MIC: 0.0125 µM (≈ 0.011 µg/mL)
[2]; [5]
  Regrowth: OD600 after dilution into drug-free medium (mean): 0.612
[2]; [6]
  Regrowth: OD600 after dilution into drug-free medium (mean): 0.591
[2]; [7]
  Regrowth: OD600 after dilution into drug-free medium (mean): 0.589
[2]; [8]
  Regrowth: OD600 after dilution into drug-free medium (mean): 0.581
[2]; [9]
  Regrowth: OD600 after dilution into drug-free medium (mean): 0.558
[2]; [10]
  Regrowth: OD600 after dilution into drug-free medium (mean): 0.549
[2]; E. coli in 1:4 CA-MHB (pH 7.4), concentration 30
  Regrowth: OD600 after dilution into drug-free medium (mean): 0.527
[2]; [11]
  Regrowth: OD600 after dilution into drug-free medium (mean): 0.548
[2]; [12]
  Regrowth: OD600 after dilution into drug-free medium (mean): 0.505
[2]; [13]
  Regrowth: OD600 after dilution into drug-free medium (mean): 0.379
[2]; [14]
  Regrowth: OD600 after dilution into drug-free medium (mean): 0.232
[2]; [15]
  Regrowth: OD600 after dilution into drug-free medium (mean): 0.178
[2]; [16]
  Regrowth: OD600 after dilution into drug-free medium (mean): 0.148
[2]; E. coli in LPM (pH 5.5), concentration 30
  Regrowth: OD600 after dilution into drug-free medium (mean): 0.112
[2]; E. coli, LPM pH 5.5, regrowth delay of non-growing bacteria, 24 h treatment, OD600 6 h after 2500-fold dilution, read-out: EC50
  EC50: 1160 nM
[2]; LPM pH 5.5 (red curve), medium assigned by comparison with Dataset 1, read-out: EC50 (regrowth inhibition curve, Fig. S4)
  EC50: 1190 nM
[3]; [5]
  log10(CFU/ml) after treatment, single replicates: 9.114 log10(CFU/ml) and 8.301 log10(CFU/ml) and 8.415 log10(CFU/ml)
[3]; E. coli in 1:4 CA-MHB (pH 7.4), concentration 0.25, vs 8.977 before treatment
  Killing: average Δlog10(CFU/ml): 0.367 log10(CFU/ml)
[3]; [6]
  log10(CFU/ml) after treatment, single replicates: 9.301 log10(CFU/ml) and 8.778 log10(CFU/ml) and 8.380 log10(CFU/ml)
[3]; E. coli in 1:4 CA-MHB (pH 7.4), concentration 0.5, vs 8.977 before treatment
  Killing: average Δlog10(CFU/ml): 0.158 log10(CFU/ml)
[3]; [7]
  log10(CFU/ml) after treatment, single replicates: 9.079 log10(CFU/ml) and 8.602 log10(CFU/ml) and 8.342 log10(CFU/ml)
[3]; E. coli in 1:4 CA-MHB (pH 7.4), concentration 1, vs 8.977 before treatment
  Killing: average Δlog10(CFU/ml): 0.303 log10(CFU/ml)
[3]; [8]
  log10(CFU/ml) after treatment, single replicates: 9.176 log10(CFU/ml) and 9.204 log10(CFU/ml) and 8.845 log10(CFU/ml)
[3]; E. coli in 1:4 CA-MHB (pH 7.4), concentration 2.5, vs 8.977 before treatment
  Killing: average Δlog10(CFU/ml): -0.098 log10(CFU/ml)
[3]; [9]
  log10(CFU/ml) after treatment, single replicates: 9.204 log10(CFU/ml) and 8.699 log10(CFU/ml) (2×)
[3]; E. coli in 1:4 CA-MHB (pH 7.4), concentration 5, vs 8.977 before treatment
  Killing: average Δlog10(CFU/ml): 0.110 log10(CFU/ml)
[3]; [10]
  log10(CFU/ml) after treatment, single replicates: 9.114 log10(CFU/ml) and 8.362 log10(CFU/ml) and 8.204 log10(CFU/ml)
[3]; E. coli in 1:4 CA-MHB (pH 7.4), concentration 10, vs 8.977 before treatment
  Killing: average Δlog10(CFU/ml): 0.417 log10(CFU/ml)
[3]; [11]
  log10(CFU/ml) after treatment, single replicates: 7.000 log10(CFU/ml) and 6.519 log10(CFU/ml) and 7.613 log10(CFU/ml)
[3]; E. coli in LPM (pH 5.5), concentration 0.25, vs 7.350 before treatment
  Killing: average Δlog10(CFU/ml): 0.307 log10(CFU/ml)
[3]; [12]
  log10(CFU/ml) after treatment, single replicates: 6.954 log10(CFU/ml) and 6.699 log10(CFU/ml) and 7.531 log10(CFU/ml)
[3]; E. coli in LPM (pH 5.5), concentration 0.5, vs 7.350 before treatment
  Killing: average Δlog10(CFU/ml): 0.289 log10(CFU/ml)
[3]; [13]
  log10(CFU/ml) after treatment, single replicates: 6.778 log10(CFU/ml) and 6.602 log10(CFU/ml) and 7.613 log10(CFU/ml)
[3]; E. coli in LPM (pH 5.5), concentration 1, vs 7.350 before treatment
  Killing: average Δlog10(CFU/ml): 0.353 log10(CFU/ml)
[3]; [14]
  log10(CFU/ml) after treatment, single replicates: 7.079 log10(CFU/ml) and 6.447 log10(CFU/ml) and 7.491 log10(CFU/ml)
[3]; E. coli in LPM (pH 5.5), concentration 2.5, vs 7.350 before treatment
  Killing: average Δlog10(CFU/ml): 0.344 log10(CFU/ml)
[3]; [15]
  log10(CFU/ml) after treatment, single replicates: 7.204 log10(CFU/ml) and 6.845 log10(CFU/ml) and 7.301 log10(CFU/ml)
[3]; E. coli in LPM (pH 5.5), concentration 5, vs 7.350 before treatment
  Killing: average Δlog10(CFU/ml): 0.234 log10(CFU/ml)
[3]; [16]
  log10(CFU/ml) after treatment, single replicates: 6.778 log10(CFU/ml) and 7.041 log10(CFU/ml) and 7.204 log10(CFU/ml)
[3]; E. coli in LPM (pH 5.5), concentration 10, vs 7.350 before treatment
  Killing: average Δlog10(CFU/ml): 0.342 log10(CFU/ml)
[4]; concentration 0.1
  log10(CFU/ml) after treatment, single replicates: 8.708 log10(CFU/ml) and 8.968 log10(CFU/ml) and 8.653 log10(CFU/ml)
  Killing: average Δlog10(CFU/ml): 0.321 log10(CFU/ml)
[4]; concentration 0.5
  log10(CFU/ml) after treatment, single replicates: 8.732 log10(CFU/ml) and 8.954 log10(CFU/ml) and 8.491 log10(CFU/ml)
  Killing: average Δlog10(CFU/ml): 0.371 log10(CFU/ml)
[4]; concentration 2.5
  log10(CFU/ml) after treatment, single replicates: 8.672 log10(CFU/ml) and 8.748 log10(CFU/ml) and 8.643 log10(CFU/ml)
  Killing: average Δlog10(CFU/ml): 0.409 log10(CFU/ml)
[4]; concentration 10
  log10(CFU/ml) after treatment, single replicates: 8.756 log10(CFU/ml) and 8.477 log10(CFU/ml) and 8.544 log10(CFU/ml)
  Killing: average Δlog10(CFU/ml): 0.505 log10(CFU/ml)
